Reference: the NIST ThermoML archive (doi:10.1016/j.fluid.2017.02.012)

Settings: Liquid, Pendant drop shape

CCCCCCCCCCCCCCCCC [heptadecane] + O=C=O
Settings | interfacial tension [mN/m]
313.15 K, 390 kPa | 25.11
313.15 K, 1300 kPa | 22.73
313.15 K, 2350 kPa | 20.26
313.15 K, 3500 kPa | 17.14
313.15 K, 5000 kPa | 13.27
313.15 K, 6500 kPa | 9.3
313.15 K, 8000 kPa | 5.34
313.15 K, 9000 kPa | 2.7
333.15 K, 750 kPa | 22.56
333.15 K, 1860 kPa | 20.55
333.15 K, 2830 kPa | 18.33
333.15 K, 3810 kPa | 16.6
333.15 K, 4850 kPa | 14.57
333.15 K, 5930 kPa | 12.56
333.15 K, 7090 kPa | 10.2
333.15 K, 8280 kPa | 8.07
333.15 K, 9630 kPa | 5.7
333.15 K, 10600 kPa | 4.26
353.15 K, 940 kPa | 19.98
353.15 K, 1910 kPa | 18.81
353.15 K, 3030 kPa | 17.6
353.15 K, 4000 kPa | 16.02
353.15 K, 5220 kPa | 14.29
353.15 K, 6110 kPa | 12.99
353.15 K, 7210 kPa | 11.23
353.15 K, 8580 kPa | 9.36
353.15 K, 9500 kPa | 8.34
353.15 K, 10740 kPa | 6.77
353.15 K, 12020 kPa | 5.27
353.15 K, 13180 kPa | 4.15
373.15 K, 920 kPa | 19.2
373.15 K, 2390 kPa | 17.81
373.15 K, 4000 kPa | 15.65
373.15 K, 5490 kPa | 13.83
373.15 K, 7260 kPa | 11.8
373.15 K, 9000 kPa | 9.93
373.15 K, 10800 kPa | 8.1
373.15 K, 12560 kPa | 6.21
373.15 K, 13470 kPa | 5.47
373.15 K, 14640 kPa | 4.43
393.15 K, 1190 kPa | 18.38
393.15 K, 4320 kPa | 14.69
393.15 K, 6780 kPa | 12.43
393.15 K, 10600 kPa | 8.46
393.15 K, 13920 kPa | 5.87

CCCCCCCCCCCCCCC [pentadecane] + O=C=O
Settings | interfacial tension [mN/m]
313.15 K, 430 kPa | 21.65
313.15 K, 1100 kPa | 20.48
313.15 K, 2090 kPa | 18.38
313.15 K, 3090 kPa | 16.15
313.15 K, 4080 kPa | 14.04
313.15 K, 5090 kPa | 11.41
313.15 K, 6090 kPa | 8.91
313.15 K, 6890 kPa | 6.25
313.15 K, 8060 kPa | 2.69
333.15 K, 360 kPa | 20.84
333.15 K, 1380 kPa | 19.61
333.15 K, 2390 kPa | 17.57
333.15 K, 3490 kPa | 15.7
333.15 K, 4330 kPa | 14.41
333.15 K, 5290 kPa | 12.81
333.15 K, 5990 kPa | 11.75
333.15 K, 7290 kPa | 9.17
333.15 K, 8400 kPa | 6.86
333.15 K, 9860 kPa | 4.22
353.15 K, 580 kPa | 19.83
353.15 K, 1630 kPa | 18.11
353.15 K, 2790 kPa | 17.01
353.15 K, 3610 kPa | 15.63
353.15 K, 4630 kPa | 14.2
353.15 K, 5700 kPa | 12.85
353.15 K, 6630 kPa | 11.53
353.15 K, 7720 kPa | 9.79
353.15 K, 8560 kPa | 8.69
353.15 K, 9490 kPa | 7.32
353.15 K, 10730 kPa | 5.87
353.15 K, 11560 kPa | 4.82
353.15 K, 12000 kPa | 4.24
373.15 K, 1080 kPa | 18.21
373.15 K, 2060 kPa | 16.61
373.15 K, 3240 kPa | 15.25
373.15 K, 4280 kPa | 14.53
373.15 K, 5390 kPa | 13.01
373.15 K, 6240 kPa | 12.08
373.15 K, 7340 kPa | 10.81
373.15 K, 8340 kPa | 9.6
373.15 K, 9400 kPa | 8.42
373.15 K, 10490 kPa | 7.37
373.15 K, 12060 kPa | 5.74
373.15 K, 13190 kPa | 4.64
373.15 K, 13960 kPa | 4.06
393.15 K, 3280 kPa | 14.72
393.15 K, 5680 kPa | 12.36
393.15 K, 8600 kPa | 9.58
393.15 K, 11400 kPa | 6.86
393.15 K, 14720 kPa | 4.22
